Patent publication EP0984967B1, “NAPHTHYRIDINE DERIVATIVES AND THEIR ANALOGUES INHIBITING CYTOMEGALOVIRUS” (BIOCHEM PHARMA INC, priority 1996, dated 1997)
≈ marks a conversion by molar mass, not a printed value.

Key:
Format in all cases: cell-based
[1] = system: HCMV virus; experiment: CMV plaque reduction assay
Description: The anti-CMV activity of test compounds was evaluated in a plaque reduction assay as follows: In 12-well tissue culture dishes, 1.5X10E5 or Hs68 cells (human […] fibroblast cell line) were plated per well with 2 ml of DMEM 10% fetal bovine serum and incubated in 5% CO2/air at 37°C overnight or until cells were ready. The medium was then removed and the cells inoculated with 0.5 ml (containing 200 pfu/ml diluted in DMEM 2% FBS) of HCMV virus in each well. After adsorption at 37°C for 2 hours, the virus was removed and cell monolayers were overlaid (1ml) with DMEM 2% FBS containing test compounds at various concentrations. The cells were then incubated at 37°C for 8 days, and then fixed with one volume (1ml) of formaldehyde 8%/water or PBS 1X for 30 minutes. The formaldehyde solution was removed and the cell monolayers were stained with crystal violet 2%/EtOH 20% for a few seconds and then rinsed with water. Monolayers were examined for the presence of plaques under a microscope, the percentage of plaque reduction determined for each compound by comparison with the untreated cells (no test compound) and the 50% inhibitory concentration (IC50) established. Ganciclovir was used as a positive control. Note: DMEM medium contained 1% glutamine and 1% pen/strep

[2] = Cytotoxicity assay ([3H]-methyl thymidine incorporation, cell proliferation); conditions: vero-34, hs-68 or wi-38; for CC50 at 48 h: 50% inhibitory concentration of cell proliferation, 48 hours with compound then 18 hours [3H]-methyl thymidine, cell line not given
Description: (§1) The cytotoxicity of test compounds was evaluated according to the following procedure: Flat bottom 96 well plates were plated with 5X10E3 Vero-34 cells/well and 1X10E4 Hs-68 or Wi-38 cells/well respectively and incubated overnight at 37°C and 5% CO2/air. After incubation, the supernatant medium was removed and replaced with test compound dilutions in 2% DMEM (150ul). The cells were then incubated 48 hours in a 5% CO2 incubator at 37°C. […] Cells were then collected onto a fiberglass filter (Printed Filtermat A 1450-421 Wallac) with a Tomtec cell harvester. Suspended cells were collected directly onto filter while for adherent cells, the medium was first removed, then the cells washed with PBS and trypsinized for 2-3 minutes (50µl trypsin/well) before collecting. Filters were dried for 1 hour at 37-40°C and then placed into bags (1450-microbeta # 1450-432 Wallac) with 4.5ml of Betascint and counts obtained with Microbeta 1450 Wallac (protocol 1). The percent of cell proliferation was determined by comparison to the control (no test compound) and thereby establishing 50% inhibitory concentration is established.

[3] = system: Vero-34 cells, Hs-68 or Wi-38 cells; experiment: as above; conditions: 50% inhibitory concentration of cell proliferation, 48 hours with compound then 18 hours [3H]-methyl thymidine; cell line not given
Description: as §1

[4] = Human betaherpesvirus 5, 192 h, plaque reduction, HCMV in Hs68 cells (human foreskin fibroblast cell line), 8 days at 37°C

Row | Compound | IC50 [1, 4] | CC50 at 48 h [2] | IC50 ([1]; Human betaherpesvirus 5, positive control tested in tandem with the compounds, plaque reduction assay) | CC50 ([2]; positive control tested in tandem with the compounds, value varied between runs) | CC50 [3]
1 | O=C(N[C@@H]1C[C@H]1c1ccccc1)c1ccc2cnccc2n1 (relative stereo) [compound #15, [1,6]naphthyridine-2-carboxylic acid (trans-2-phenyl-cyclopropyl)-amide] | 1 to 10 µg/mL (≈ 3.46 to 34.6 µM) | ~25 µg/mL (≈ 86.4 µM) | – | – | –
2 | Cc1ccccc1NC(=O)Nc1ccc2cnccc2n1 [compound 56, 1-(2-methyl-phenyl)-3-[1,6]naphthyridin-2-yl-urea] | – | > 100 µg/mL | – | – | –
3 | CC(C)Oc1ccccc1CNC(=O)c1ccc2cncc(-c3ccccn3)c2n1 [compound 57, 8-(2-pyridyl)-[1,6]naphthyridine-2-carboxylic acid (2-isopropoxybenzylamine)] | 0.1 to 1 µg/mL (≈ 0.251 to 2.51 µM) | 6 to 12.5 µg/mL (≈ 15.1 to 31.4 µM) | – | – | –
4 | Cc1ccccc1CNC(=O)c1ccc2cnccc2n1 [compound #1, N-(2-methylbenzyl)-2-(1,6)naphthyridinecarboxamide] | ~1 µg/mL (≈ 3.61 µM) | 50 to 75 µg/mL (≈ 180 to 270 µM) | – | – | –
5 | O=C(NCc1ccccc1)c1ccc2cnccc2n1 [compound #2, N-benzyl-2-(1,6)naphthyridinecarboxamide] | ~1 µg/mL (≈ 3.8 µM) | ~50 µg/mL (≈ 190 µM) | – | – | –
6 | O=C(NCc1ccc(Br)cc1)c1ccc2cnccc2n1 [compound #3, N-(4-bromobenzyl)-2-(1,6)naphthyridi necarboxamide] | 10 to 50 µg/mL (≈ 29.2 to 146 µM) | 10 to 50 µg/mL (≈ 29.2 to 146 µM) | – | – | –
7 | O=C(NCc1ccccc1Cl)c1ccc2cnccc2n1 [compound #4, N-(2-chlorobenzyl)-2-(1,6)naphthyridinecarboxamide] | 0.5 to 1 µg/mL (≈ 1.68 to 3.36 µM) | ~100 µg/mL (≈ 336 µM) | – | – | –
8 | O=C(NCc1ccccc1Br)c1ccc2cnccc2n1 [compound #5, N-(2-bromobenzyl)-2-(1,6)naphthyridinecarboxamide] | 0.5 to 1 µg/mL (≈ 1.46 to 2.92 µM) | > 100 µg/mL | – | – | –
9 | O=C(NCc1cccc(Br)c1)c1ccc2cnccc2n1 [compound #6, N-(3-bromobenzyl)-2-(1,6)naphthyridinecarboxamide] | 1 to 5 µg/mL (≈ 2.92 to 14.6 µM) | ~50 µg/mL (≈ 146 µM) | – | – | –
10 | O=C(NCc1ccccc1F)c1ccc2cnccc2n1 [compound #7, N-(2-fluorobenzyl)-2-(1,6)naphthyridinecarboxamide] | < 5 µg/mL | ~100 µg/mL (≈ 356 µM) | – | – | –
11 | O=C(NCc1ccc(Cl)cc1)c1ccc2cnccc2n1 [compound #8, N-(4-chlorobenzyl)-2-[1,6]naphthyridinecarboxamide] | 1 to 10 µg/mL (≈ 3.36 to 33.6 µM) | 6.25 to 10 µg/mL (≈ 21 to 33.6 µM) | – | – | –
12 | CCOc1ccccc1CNC(=O)c1ccc2cnccc2n1 [compound #9, N-(2-ethyloxybenzyl)-2-(1,6)naphthyridinecarboxamide] | ~0.1 µg/mL (≈ 0.325 µM) | ~6.25 µg/mL (≈ 20.3 µM) | – | – | –
13 | COc1cccc(CNC(=O)c2ccc3cnccc3n2)c1 [compound #12, N-(3-methoxybenzyl)-2-(1,6)naphthyridinecarboxamide] | < 5 µg/mL | > 100 µg/mL | – | – | –
14 | O=C(NCc1ccccc1C(F)(F)F)c1ccc2cnccc2n1 [compound #13, N-(2-trifluoromethylbenzyl)-2-(1,6)naphthyridinecarboxamide] | < 5 µg/mL | > 100 µg/mL | – | – | –
15 | COc1cccc(OC)c1CNC(=O)c1ccc2cnccc2n1 [compound #14, N-(2,6-dimethoxybenzyl)-2-(1,6)naphthyridinecarboxamide] | < 5 µg/mL | > 100 µg/mL | – | – | –
16 | Nc1cccc(F)c1CNC(=O)c1ccc2cnccc2n1 [compound #16, N-(2-amino-6-fluorobenzyl)-2-[1,6]naphthyridinecarboxamide] | 1 to 10 µg/mL (≈ 3.37 to 33.7 µM) | ~25 µg/mL (≈ 84.4 µM) | – | – | –
17 | CC(NC(=O)c1ccc2cnccc2n1)c1ccccc1 (centres unmarked) [compound #17, [1,6]naphthyridine-2-carboxylic acid (1-phenyl-ethyl) amide] | 0.1 to 1 µg/mL (≈ 0.361 to 3.61 µM) | 25 to 50 µg/mL (≈ 90.1 to 180 µM) | – | – | –
18 | O=C(NCc1ccccn1)c1ccc2cnccc2n1 [compound #18, [1,6]naphthyridine-2-carboxylic acid (pyridine-2-ylmethyl) amide] | 5 to 25 µg/mL (≈ 18.9 to 94.6 µM) | > 100 µg/mL | – | – | –
19 | O=C(NCC1CCCCC1)c1ccc2cnccc2n1 [compound #19] | 1 to 10 µg/mL (≈ 3.71 to 37.1 µM) | 25 to 50 µg/mL (≈ 92.8 to 186 µM) | – | – | –

Row | Compound | IC50 [1, 4] | CC50 at 48 h [2] | IC50 ([1]; Human betaherpesvirus 5, positive control tested in tandem with the compounds, plaque reduction assay) | CC50 ([2]; positive control tested in tandem with the compounds, value varied between runs) | CC50 [3]
20 | O=C(c1ccc2cnccc2n1)N1CCc2ccccc2C1 [compound #20, (3,4-dihydro-1h-isoquinolin-2-yl)-[1,6]naphthyridin-2-yl-methanone] | 5 to 25 µg/mL (≈ 17.3 to 86.4 µM) | > 100 µg/mL | – | – | –
21 | CSc1ccccc1CNC(=O)c1ccc2cnccc2n1 [compound #21, N-(2-methylthiobenzyl)-2-[1,6]naphthyridine carboxamide] | 1 to 10 µg/mL (≈ 3.23 to 32.3 µM) | ~50 µg/mL (≈ 162 µM) | – | – | –
22 | O=C(NCc1ccccc1O)c1ccc2cnccc2n1 [compound #22, N-(2-hydroxybenzyl)-2-(1,6)naphthyridinecarboxamide] | < 5 µg/mL | 25 to 100 µg/mL (≈ 89.5 to 358 µM) | – | – | –
23 | COC(=O)c1ccccc1CNC(=O)c1ccc2cnccc2n1 [compound #23, N-(2-methoxycarbonylbenzyl)-2-(1,6)naphthyridinecarboxamide] | < 5 µg/mL | > 100 µg/mL | – | – | –
24 | C=CCNC(=O)c1ccc2cnccc2n1 [compound #24, (1,6)naphthyridine-2-carboxylic acid allylamide] | 5 to 10 µg/mL (≈ 23.4 to 46.9 µM) | 10 to 100 µg/mL (≈ 46.9 to 469 µM) | – | – | –
25 | CCNc1ccccc1CNC(=O)c1ccc2cncc(Br)c2n1 [compound #33, 8-bromo-[1,6]naphthyridine-2-carboxylic acid (2-N-ethylaminobenzylamine)] | < 0.01 µg/mL | 6.25 to 12.5 µg/mL (≈ 16.2 to 32.4 µM) | – | – | –
26 | CC(C)Oc1ccccc1CNC(=O)c1ccc2cncc(Br)c2n1 [compound #34, 8-bromo-[1,6]naphthyridine-2-carboxylic acid (2-isopropoxybenzylamine)] | 0.1 to 1 µg/mL (≈ 0.25 to 2.5 µM) | ~12.5 µg/mL (≈ 31.2 µM) | – | – | –
27 | COc1ccccc1CNC(=O)c1ccc2cncc(Br)c2n1 [compound #35, 8-bromo-[1,6]naphthyridine-2-carboxylic acid (2-methoxybenzylamine)] | ~0.01 µg/mL (≈ 0.0269 µM) | ~12.5 µg/mL (≈ 33.6 µM) | – | – | –
28 | CC(C)Oc1ccccc1CNC(=S)c1ccc2cnccc2n1 [compound #40, [1,6]Naphthyridine-2-thiocarboxylic acid-2-isopropoxybenzylamine] | 0.1 to 1 µg/mL (≈ 0.296 to 2.96 µM) | 12.5 to 25 µg/mL (≈ 37 to 74.1 µM) | – | – | –
29 | COc1cccc(CNC(=S)c2ccc3cnccc3n2)c1 [compound #41, [1,6]Naphthyridine-2-thiocarboxylic acid-3-methoxybenzylamine] | 1 to 10 µg/mL (≈ 3.23 to 32.3 µM) | 25 to 50 µg/mL (≈ 80.8 to 162 µM) | – | – | –
30 | CC(C)Oc1ccccc1NC(=O)Nc1ccc2cnccc2n1 [compound #46, 1-(2-iso-propoxy-phenyl)-3-[1,6]naphthyridin-2-yl-urea] | ~0.01 µg/mL (≈ 0.031 µM) | ~25 µg/mL (≈ 77.6 µM) | – | – | –
31 | CC(C)Oc1ccccc1CNC(=O)Nc1ccc2cnccc2n1 [compound #47, 1-(2-iso-propoxybenzyl)-3-[1,6]naphthyridin-2-yl-urea] | 0.01 to 0.1 µg/mL (≈ 0.0297 to 0.297 µM) | 25 to 50 µg/mL (≈ 74.3 to 149 µM) | – | – | –
32 | CC(C)(C)OC(=O)NCCCCNC(=O)Nc1ccc2cnccc2n1 [compound #48, 1-(N-boc-4-aminobutyl)-3-[1,6]naphthyridin-2-yl-urea] | 0.1 to 1 µg/mL (≈ 0.278 to 2.78 µM) | 3.15 to 6.25 µg/mL (≈ 8.76 to 17.4 µM) | – | – | –
33 | Cl.NCCCCNC(=O)Nc1ccc2cnccc2n1 [compound #49, 1-(4-aminobutyl)-3-[1,6]naphthyridin-2-yl-urea hydrochloride] | 1 to 5 µg/mL | 6.25 to 12.5 µg/mL | – | – | –
34 | C[C@H](NC(=O)Nc1ccc2cnccc2n1)c1ccccc1 [compound #50, 1-[(S)-α-methylbenzyl]-3-[1,6]naphthyridin-2-yl-urea] | 1 to 10 µg/mL (≈ 3.42 to 34.2 µM) | 12.5 to 25 µg/mL (≈ 42.8 to 85.5 µM) | – | – | –
35 | C[C@@H](NC(=O)Nc1ccc2cnccc2n1)c1ccccc1 [compound #51, 1-[(R)-α-methylbenzyl]-3-[1,6]naphthyridin-2-yl-urea] | 0.01 to 0.1 µg/mL (≈ 0.0342 to 0.342 µM) | < 3.15 µg/mL | – | – | –
36 | CCCCNC(=O)Nc1ccc2cnccc2n1 [compound #53, 1-butyl-3-[1,6]naphthyridin-2-yl-urea] | 0.1 to 1 µg/mL (≈ 0.409 to 4.09 µM) | 2.5 to 5 µg/mL (≈ 10.2 to 20.5 µM) | – | – | –
37 | Nc1nc(O)c2ncn(COC(CO)CO)c2n1 [ganciclovir, reference compound] | – | – | 0.1 to 0.5 µg/mL (≈ 0.392 to 1.96 µM) | 10 to 200 µg/mL (≈ 39.2 to 784 µM) | –
38 | N-(2propoxybenzyl)-2-[1,6]naphthyridine-2-carboxamide [compound #26] | – | – | – | – | ~1.5 µg/mL
